Measured values: patent publication US6410535B1, “Prophylactic or therapeutic agents for diseases having vascular dysfunction associated with insulin resistance” (Suntory Limited, priority 1998, dated 2002)
Counter-ions that a name gives are not always drawn.

Columns and labels:
[1] = as reported in Japanese Patent Public Disclosure No. 25323/84; cited from earlier work
[2] = rat, in vivo, po
[3] = target: T1, endothelial NOS (eNOS) (Rattus norvegicus, UniProt Q62600); test: Endothelial NOS activity in thoracic aorta sections; assay type: in vivo, Sprague-Dawley rats; details: for eNOS activity, Average: 10 mg/kg/day oral, 8 weeks
T1 construct: After 8 weeks, the thoracic aorta was collected; from tissue; host or cells: thoracic aorta sections with endothelium (EC (+)) of Sprague-Dawley rats
Protocol: (§1) Male Sprague-Dawley rats (150 g, supplied from Charles River) were used to prepare a model group with insulin resistance induced by fructose feed loading (hereinafter referred to as “FR group”) according to the procedure described by Hwang et al. (Hwang, I-H. et al., Hypertension 10:512, 1987). A control group grown with a starch feed (hereinafter referred to as “CTR group”) was also prepared (FR group: n=16; CTR group: n=16). FR group received a feed containing 67% (hereinafter meaning % by weight) carbohydrate (containing 98% fructose available from Oriental Yeast Co., Ltd.), 13% fat and 20% protein, while CTR group received a feed containing 58% carbohydrate, 12% fat and […]. […] After 8 weeks, the thoracic aorta was collected. For each group, endothelium-separated sections (EC (−)) and non-separated sections (EC (+)) were prepared and examined for superoxide anion (O2^−) production level, endothelial NOS (eNOS) activity and endothelium-dependent vasorelaxation.
(§2) Group-to-group statistic analyses were made by one-way ANOVA, with the significance level being p<0.05. Multiple comparison was made by Bonferronl/Dunn, with the significance level being p<0.05.
Measurement of eNOS activity was made according to Rees, D. et al., Hypertension 28: 367, 1996.

[4] = test system: thoracic aorta tissue sections; test: Superoxide anion (O2−) production level in thoracic aorta tissue sections, lucigenin-enhanced chemiluminescence; assay type: in vivo, Sprague-Dawley rats; details: for O2− production level, Average: 10 mg BH4 dihydrochloride/kg/day oral, 8 weeks
Protocol: as §1, §2
Measurement of O2^− production level was made by the lucigenin-enhanced chemiluminescence method (Ohara et al., J. Clin. Invest. 91: 2546, 1993).

[5] = test system: thoracic aorta sections; test: Endothelium-dependent vasorelaxation induced by calcium ionophore (A23187), isometric tensiometry; assay type: in vivo, Sprague-Dawley rats; details: FR group, EC (+), A23187 3×10^−7 M
Protocol: as §1
Group-to-group statistic analyses were made by one-way ANOVA, with the significance level being p<0.05. Multiple comparison was made by Bonferronl/Dunn, with the significance level being p<0.05. […]

[6] = test system: thoracic aorta sections; test: Endothelium-dependent vasorelaxation induced by acetylcholine, isometric tensiometry; assay type: in vivo, Sprague-Dawley rats; details: for Endothelium-dependent vasorelaxation induced by acetylcholine, Average / Endothelium-dependent vasorelaxation induced by acetylcholine, Average (TABLE 3): 10 mg/kg/day oral, 8 weeks; for Endothelium-dependent vasorelaxation induced by acetylcholine, Average: acetylcholine 10^−5 M, vs 10^−4 M papaverine; for Endothelium-dependent vasorelaxation induced by acetylcholine, Average (TABLE 3): repeat print of Table 3
Protocol: as §1, §2
Measurement of endothelium-dependent vasorelaxation was made by the isometric tensiometry (Toda, N. et al., Stroke 24: 1584, 1993) using ink-writing oscillographs (Nippon Kohden Corporation) and a force-displacement transducer (Nippon Kohden Corporation). Data were shown as % maximum relaxation vs. the maximum relaxation induced by 10^−4 M papaverine after aortic sections were partially precontracted with 1-3×10^−7 M 1-phenylephrine. Endothelium-dependent vasorelaxation induced by acetylcholine (10^−5M) and calcium ionophore (A23187, Sigma) (3×10^−7 M) in EC (+) of each of the 4 groups are shown in Tables 3 and 4, respectively.

[7] = CTR + BH4 group (starch feed), EC (+)
[8] = FR + BH4 group (fructose-fed, insulin resistant), EC (+)

Structure (SMILES): C[C@H](O)[C@H](O)C1CNc2nc(N)[nH]c(=O)c2N1 (stereo partly drawn) [(6R,S)-5,6,7,8-tetrahydrobiopterin]
- toxicity (in words) [1]: only slightly toxic

Structure (SMILES): CC(O)C(O)C1CNc2nc(N)[nH]c(=O)c2N1 [BH4 dihydrochloride, (6R)-L-erythro-5,6,7,8-tetrahydrobiopterin]
- acute toxicity [2]: ≥ 2 g/kg (body weight)

Structure (SMILES): CC(O)C(O)C1CNc2nc(N)[nH]c(=O)c2N1 [BH4, (6R)-L-erythro-5,6,7,8-tetrahydrobiopterin]
- eNOS activity, Average [3, 7]: 57.0 pmol/min/mg protein
- change of eNOS activity by BH4 administration (in words) ([3]; CTR group): any significant change was not observed
- eNOS activity, Average [3, 8]: 60.2 pmol/min/mg protein
- change of eNOS activity by BH4 administration (in words) ([3]; FR group, EC (+)): significantly (p<0.001) improved
- O2− production level, Average [4, 7]: 189.3 100 cpm/mg dry weight
- change of O2− production level by BH4 administration (in words) ([4]; CTR group): any significant change was not observed
- O2− production level, difference among the 4 groups (in words) ([4]; EC (−) endothelium-separated sections): No significant difference
- O2− production level, Average [4, 8]: 118.0 100 cpm/mg dry weight
- change of O2− production level by BH4 administration (in words) ([4]; FR group, EC (+)): significantly (p<0.001) decreased
- change of calcium ionophore-induced endothelium-dependent vasorelaxation by BH4 administration (in words) [5]: significantly (p<0.001) recovered
- Endothelium-dependent vasorelaxation induced by acetylcholine, Average ([6]; CTR + BH4 group, EC (+)): 92.9 % maximum relaxation
- Endothelium-dependent vasorelaxation induced by acetylcholine, Average (TABLE 3) ([6]; CTR + BH4 group, EC (+)): 92.9 % maximum relaxation
- change of endothelium-dependent vasorelaxation by BH4 administration (in words) ([6]; CTR group): any significant change was not observed
- Endothelium-dependent vasorelaxation induced by acetylcholine, Average ([6]; FR + BH4 group, EC (+)): 82.6 % maximum relaxation
- Endothelium-dependent vasorelaxation induced by acetylcholine, Average (TABLE 3) ([6]; FR + BH4 group, EC (+)): 82.6 % maximum relaxation
- change of acetylcholine-induced endothelium-dependent vasorelaxation by BH4 administration (in words) ([6]; FR group, EC (+)): significantly (p<0.001) recovered
